Measurements taken from patent publication US20030144237A1, “Use of inhibition of a gas6 function or of a gas6 receptor for preventing and treating a cardiovascular disease” (priority 2000, published 2003).

Columns and labels:
[1] = system: platelets from Gas6−/− mice; assay: Platelet aggregation (turbidimetric, Chronolog aggregometer), Gas6−/− platelets; assay type: cell-based; settings: for platelet aggregation in response to PMA, A23187 or thrombin: FIG. 2, thrombin with washed platelets; for irreversible platelet aggregation at higher agonist concentrations: ADP 50 μM, collagen 5-15 μg/ml, U46619 100 μM; for irreversible platelet aggregation at low agonist concentrations: ADP <10 μM, collagen 2 μg/ml, U46619 10 μM, only shape change
Procedure: (§1) Blood was centrifuged at 100 g for 10 minutes, allowing separation of platelet-rich plasma (PRP). Platelet-poor plasma (PPP) was obtained by centrifugation of the remaining blood at 2,000 g for 10 minutes. PRP and PPP were pooled from four Gas6^−/− or Gas6^+/+ mice. Platelet aggregation was measured turbidimetrically in an optical Chronolog aggregometer (model 490, Coulter Electronics Ltd), using 280 μl PRP, adjusted to a concentration of 250,000 platelets/μl with PPP as a diluent. PPP also served as 100% reference for aggregation. Aggregation in response to collagen (equine collagen from Hormon Chemie), ADP or the thromboxane A2 mimetic U46619 was studied.
(§2) Aggregation in response to thrombin was performed with washed platelets. […] Apyrase was added to PRP at a final concentration of 1 u/ml. Platelets were then washed by adding 2 volumes ACD and pelleted by centrifugation at 2,000 g for 10 minutes. Platelet pellet was resuspended in Tyrode's buffer containing 1% BSA and final platelet suspension was adjusted to 200,000 platelets/μl and kept at 37° C. Platelet aggregation was measured with an optical Chronolog aggregometer as described above.

Gas6−/− platelets = assay: Platelet ATP release (dense granule secretion), Lumi-aggregometer, Gas6−/− platelets; assay type: cell-based, mice; parameters: unit not given here; settings: mean±SEM of three experiments
Procedure: (§3) Platelet aggregation and, ATP secretion were measured in an optical Chronolog Lumi-aggregometer (Coulter Electronics Ltd), using 280 μl PRP, adjusted to a concentration of 250,000 platelets/μl with PPP as a diluent. Platelet aggregation was measured as described in example 4. Platelet ATP release was monitored by adding firely luciferase and luciferin to all samples and comparing luminescence created by platelet ATP release to that generated by addition of an ATP standard (Chrono-Lume, Kordia). Aggregation and ATP release in response to collagen (equine collagen from Hormon Chemie), ADP, or the thromboxane A2 mimetic U46619 were studied. Platelet aggregation and ATP secretion in response to thrombin were performed with washed platelets in an optical Chronolog Lumi-aggregometer as described above.

[2] = system: Platelets from Gas6+/+ mice; assay: Platelet aggregation (turbidimetric, Chronolog aggregometer), Gas6+/+ platelets; assay type: cell-based; settings: for platelet aggregation in response to PMA, A23187 or thrombin: FIG. 2, thrombin with washed platelets; for platelet aggregation in response to agonist (dose dependence): platelet-rich plasma, FIG. 1a-j
Procedure: as §1, §2

Gas6+/+ platelets = assay: Platelet ATP release (dense granule secretion), Lumi-aggregometer, Gas6+/+ platelets; assay type: cell-based, mice; parameters: unit not given here; settings: mean±SEM of three experiments
Procedure: as §3

[3] = agonist 8 μM, platelet-rich plasma
[4] = agonist 10 μg/ml, platelet-rich plasma
[5] = agonist 1 U/ml, washed platelets
[6] = agonist 20 μM, platelet-rich plasma
[7] = agonist 50 μM, platelet-rich plasma
[8] = agonist 100 μM, platelet-rich plasma

| Compound | platelet aggregation in response to PMA, A23187 or thrombin [1] | platelet aggregation in response to PMA, A23187 or thrombin [2] | irreversible platelet aggregation at higher agonist concentrations [1] | irreversible platelet aggregation at low agonist concentrations [1] | platelet aggregation in response to agonist (dose dependence) [2] | ATP release (Gas6−/− platelets; [8]) | ATP release (Gas6+/+ platelets; [8]) | other results |
| --- | --- | --- | --- | --- | --- | --- | --- | --- |
| CNc1ccc2oc(C[C@H]3O[C@@]4(CC[C@H]3C)O[C@H]([C@H](C)C(=O)c3ccc[nH]3)[C@H](C)C[C@H]4C)nc2c1C(=O)O [A23187] | aggregated normally | aggregated normally | – | – | – | – | – | ATP release (Gas6−/− platelets; [3]): 7.3 ± 3.0; ATP release (Gas6+/+ platelets; [3]): 9.2 ± 3.1 |
| Collagen | – | – | induced irreversible aggregation | failed to irreversibly aggregate | dose-dependently aggregated | – | – | ATP release (Gas6−/− platelets; [4]): 11 ± 0.8; ATP release (Gas6+/+ platelets; agonist 1 μg/ml, platelet-rich plasma): 1.8 ± 0.3; ATP release (Gas6+/+ platelets; [4]): 10 ± 1.0 |
| Thrombin | stimulated platelet aggregation comparably in both genotypes | stimulated platelet aggregation comparably in both genotypes | – | – | – | – | – | ATP release (Gas6−/− platelets; [5]): 11 ± 1.2; ATP release (Gas6+/+ platelets; [5]): 17 ± 1.6 |
| Nc1ncnc2c1ncn2[C@@H]1O[C@H](COP(=O)(O)OP(=O)(O)O)[C@@H](O)[C@H]1O [ADP, adenosine 5′-diphosphate] | – | – | induced irreversible aggregation | failed to irreversibly aggregate | dose-dependently aggregated | – | – | ATP release (Gas6−/− platelets; [6]): 0.2 ± 0.1; ATP release (Gas6−/− platelets; [7]): 1.3 ± 0.3; ATP release (Gas6+/+ platelets; [6]): 0.8 ± 0.1; ATP release (Gas6+/+ platelets; [7]): 2.6 ± 0.8 |
| CCCCCCCCCCCCCC(=O)O[C@@H]1[C@@H](C)[C@@]2(O)[C@@H](C=C(CO)C[C@]3(O)C(=O)C(C)=C[C@@H]23)[C@@H]2C(C)(C)[C@]12OC(C)=O [PMA, phorbol-12-myristyl-13-acetate] | aggregated normally | aggregated normally | – | – | – | 1.9 ± 0.6 | 2.3 ± 0.4 | – |
| CCCCC[C@H](O)/C=C/[C@@H]1[C@@H](C/C=C\CCCC(=O)O)[C@H]2CO[C@@H]1C2 [U46619] | – | – | induced irreversible aggregation | failed to irreversibly aggregate | dose-dependently aggregated | 7.6 ± 2.3 | 8.2 ± 2.0 | ATP release (Gas6+/+ platelets; agonist 10 μM, platelet-rich plasma): 6.5 ± 1.5 |
